Patent US10336730B2, “Substituted glycine derived FXIA inhibitors” (BRISTOL-MYERS SQUIBB COMPANY, priority 2015, dated 2019)

Molecular target: T1, purified human Factor XIa (Homo sapiens, UniProt P03951)
T1 construct: purchased Haematologic Technologies
Assay: Factor XIa enzyme inhibition assay (chromogenic substrate S-2366), Ki
Type: biochemical
Conditions: substrate S-2366, pH 7.4
Experimental: The effectiveness of compounds of the present invention as inhibitors of the coagulation Factors XIa, VIIa, IXa, Xa, XIIa, plasma kallikrein, thrombin, chemytrypsin or trypsin can be determined using a relevant purified serine protease, respectively, and an appropriate synthetic substrate. The rate of hydrolysis of the chromogenic or fluorogenic substrate by the relevant serine protease was measured both in the absence and presence of compounds of the present invention. […] A decrease in the rate of absorbance or fluorescence change in the presence of inhibitor is indicative of enzyme inhibition. Such methods are known to one skilled in the art. The results of this assay are expressed as the inhibitory constant, Ki.
Factor XIa determinations were made in 50 mM HEPES buffer at pH 7.4 containing 145 mM NaCl, 5 mM KCl, and 0.1% PEG 8000 (polyethylene glycol; JT Baker or Fisher Scientific). Determinations were made using purified human Factor XIa at a final concentration of […] (Haematologic Technologies) and the synthetic substrate S-2366 (pyroGlu-Pro-Arg-pNA; CHROMOGENIX® or AnaSpec) at a concentration of 0.0002-0.001 M.
Values of Ki were determined by allowing the protease to react with the substrate in the presence of the inhibitor. Reactions were allowed to go for periods of 20-180 minutes (depending on the protease) and the velocities (rate of absorbance or fluorescence change versus time) were measured. The following relationships were used to calculate Ki values: (Vmax*S)/(Km+S) (vo−vs)/vs=I/(Ki*(1+S/Km)) for a competitive inhibitor with one binding site; or vs/vo=A+(B−A)/(1+(IC50/(I)^n)); and Ki=IC50/(1+S/Km) for a competitive inhibitor where: […]

T1 sequence (P03951 388-625 limits assumed): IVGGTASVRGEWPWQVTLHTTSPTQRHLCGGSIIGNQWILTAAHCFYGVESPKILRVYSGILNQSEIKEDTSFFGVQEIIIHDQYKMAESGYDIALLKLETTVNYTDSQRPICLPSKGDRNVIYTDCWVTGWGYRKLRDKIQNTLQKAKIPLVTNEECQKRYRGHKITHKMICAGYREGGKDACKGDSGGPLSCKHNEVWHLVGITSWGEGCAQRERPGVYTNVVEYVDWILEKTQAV
T1 sequence (P03951 19-387 partner limits assumed): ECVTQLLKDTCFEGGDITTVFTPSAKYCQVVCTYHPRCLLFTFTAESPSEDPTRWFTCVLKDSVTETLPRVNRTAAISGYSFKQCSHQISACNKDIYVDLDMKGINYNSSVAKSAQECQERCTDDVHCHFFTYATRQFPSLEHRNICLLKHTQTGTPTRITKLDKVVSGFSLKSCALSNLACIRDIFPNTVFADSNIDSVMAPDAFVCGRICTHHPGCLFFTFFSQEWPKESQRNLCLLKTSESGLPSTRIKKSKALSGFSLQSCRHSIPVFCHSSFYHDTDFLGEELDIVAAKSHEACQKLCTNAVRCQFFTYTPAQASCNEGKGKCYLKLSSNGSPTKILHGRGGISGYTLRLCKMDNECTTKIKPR

| SMILES | Ki [nM] |
| --- | --- |
| CN1CCN(C(=O)[C@H](Cc2ccccc2)n2cnc(-c3cc(Cl)ccc3-n3cc(Cl)nn3)cc2=O)CC1 [Example 68, (S)-6-(5-chloro-2-(4-chloro-1H-1,2,3-triazol-1-yl)phenyl)-3-(1-(4-methylpiperazin-1-yl)-1-oxo-3-phenylpropan-2-yl)pyrimidin-4(3H)-one] | 4410 |
| COCCN(C)C(=O)[C@H](Cc1ccccc1)n1cnc(-c2cc(Cl)ccc2-n2cc(Cl)nn2)cc1=O [Example 58, (S)-2-(4-(5-chloro-2-(4-chloro-1H-1,2,3-triazol-1-yl)phenyl)-6-oxopyrimidin-1(6H)-yl)-N-(2-methoxyethyl)-N-methyl-3-phenylpropanamide] | 7860 |
| CC(C)c1nnc2n1CCN(C(=O)[C@H](Cc1ccccc1)n1cnc(-c3cc(Cl)ccc3-n3cc(Cl)nn3)cc1=O)C2 [Example 67, (S)-6-(5-chloro-2-(4-chloro-1H-1,2,3-triazol-1-yl)phenyl)-3-(1-(3-isopropyl-5,6-dihydro-[1,2,4]triazolo[4,3-a]pyrazin-7(8H)-yl)-1-oxo-3-phenylpropan-2-yl)pyrimidin-4(3H)-one] | 7370 |
| CN(C)Cc1nccn1-c1ccc(NC(=O)[C@H](Cc2ccccc2)n2cnc(-c3cc(Cl)ccc3-n3cc(Cl)nn3)cc2=O)c(F)c1 [Example 95, (S)-2-(4-(5-chloro-2-(4-chloro-1H-1,2,3-triazol-1-yl)phenyl)-6-oxopyrimidin-1(6H)-yl)-N-(4-(2-((dimethylamino)methyl)-1H-imidazol-1-yl)-2-fluorophenyl)-3-phenylpropanamide] | 783 |
| O=C(Nc1ccc(-n2ccnc2)cc1)[C@H](Cc1ccccc1)n1cnc(-c2cc(Cl)ccc2-n2cc(Cl)nn2)cc1=O [Example 94, (S)-N-(4-(1H-imidazol-1-yl)phenyl)-2-(4-(5-chloro-2-(4-chloro-1H-1,2,3-triazol-1-yl)phenyl)-6-oxopyrimidin-1(6H)-yl)-3-phenylpropanamide] | 25.7 |
| O=C(Nc1ccc2c(c1)CS(=O)(=O)C2)[C@H](Cc1ccccc1)n1cnc(-c2cc(Cl)ccc2-n2cc(Cl)nn2)cc1=O [Example 28, (S)-2-(4-(5-chloro-2-(4-chloro-1H-1,2,3-triazol-1-yl)phenyl)-6-oxopyrimidin-1(6H)-yl)-N-(2,2-dioxido-1,3-dihydrobenzo[c]thiophen-5-yl)-3-phenylpropanamide] | 80.3 |
| O=C([C@H](Cc1ccccc1)n1cnc(-c2cc(Cl)ccc2-n2cc(Cl)nn2)cc1=O)N1CCc2ccccc2C1 [Example 71, (S)-6-(5-chloro-2-(4-chloro-1H-1,2,3-triazol-1-yl)phenyl)-3-(1-(3,4-dihydroisoquinolin-2(1H)-yl)-1-oxo-3-phenylpropan-2-yl)pyrimidin-4(3H)-one] | 790 |
| O=C1CN(C(=O)[C@H](Cc2ccccc2)n2cnc(-c3cc(Cl)ccc3-n3cc(Cl)nn3)cc2=O)CCN1 [Example 53, (S)-6-(5-chloro-2-(4-chloro-1H-1,2,3-triazol-1-yl)phenyl)-3-(1-oxo-1-(3-oxopiperazin-1-yl)-3-phenylpropan-2-yl)pyrimidin-4(3H)-one] | 7620 |
| CCn1nc(C)cc1NC(=O)[C@H](Cc1ccccc1)n1cnc(-c2cc(Cl)ccc2-n2cc(Cl)nn2)cc1=O [Example 44, (S)-2-(4-(5-chloro-2-(4-chloro-1H-1,2,3-triazol-1-yl)phenyl)-6-oxopyrimidin-1(6H)-yl)-N-(1-ethyl-3-methyl-1H-pyrazol-5-yl)-3-phenylpropanamide] | 395 |
| Nc1n[nH]c2ccc(NC(=O)[C@H](Cc3ccccc3)n3cnc(-c4cc(Cl)ccc4-n4cc(Cl)nn4)cc3=O)cc12 [Example 98, (S)-N-(3-amino-1H-indazol-5-yl)-2-(4-(5-chloro-2-(4-chloro-1H-1,2,3-triazol-1-yl)phenyl)-6-oxopyrimidin-1(6H)-yl)-3-phenylpropanamide] | 554 |
| O=C(Nc1ccc(N2CCOCC2=O)cc1)[C@H](Cc1ccccc1)n1cnc(-c2cc(Cl)ccc2-n2cc(Cl)nn2)cc1=O [Example 37, (S)-2-(4-(5-chloro-2-(4-chloro-1H-1,2,3-triazol-1-yl)phenyl)-6-oxopyrimidin-1(6H)-yl)-N-(4-(3-oxomorpholino)phenyl)-3-phenylpropanamide] | 155 |
| Cn1cnc2cc(NC(=O)[C@H](Cc3ccccc3)n3cnc(-c4cc(Cl)ccc4-n4cc(Cl)nn4)cc3=O)cnc21 [Example 27, (S)-2-(4-(5-chloro-2-(4-chloro-1H-1,2,3-triazol-1-yl)phenyl)-6-oxopyrimidin-1(6H)-yl)-N-(3-methyl-3H-imidazo[4,5-b]pyridin-6-yl)-3-phenylpropanamide] | 420 |
| O=C([C@H](Cc1ccccc1)n1cnc(-c2cc(Cl)ccc2-n2cc(Cl)nn2)cc1=O)N1CCC(O)CC1 [Example 81, (S)-6-(5-chloro-2-(4-chloro-1H-1,2,3-triazol-1-yl)phenyl)-3-(1-(4-hydroxypiperidin-1-yl)-1-oxo-3-phenylpropan-2-yl)pyrimidin-4(3H)-one] | 4410 |
| N#Cc1ccc(NC(=O)[C@H](Cc2ccccc2)n2cnc(-c3cc(Cl)ccc3-n3cc(Cl)nn3)cc2=O)cn1 [Example 43, (S)-2-(4-(5-chloro-2-(4-chloro-1H-1,2,3-triazol-1-yl)phenyl)-6-oxopyrimidin-1(6H)-yl)-N-(6-cyanopyridin-3-yl)-3-phenylpropanamide] | 208 |

Now from value to compound:

| Ki [nM] | SMILES |
| --- | --- |
| 74 | Cc1ccc2c(NC(=O)[C@H](Cc3ccccc3)n3cnc(-c4cc(Cl)ccc4-n4cc(Cl)nn4)cc3=O)noc2c1 [Example 113, (S)-2-(4-(5-chloro-2-(4-chloro-1H-1,2,3-triazol-1-yl)phenyl)-6-oxopyrimidin-1(6H)-yl)-N-(6-methylbenzo[d]isoxazol-3-yl)-3-phenylpropanamide] |
| 2290 | Cn1ccc(CNC(=O)[C@H](Cc2ccccc2)n2cnc(-c3cc(Cl)ccc3-n3cc(Cl)nn3)cc2=O)n1 [Example 105, (S)-2-(4-(5-chloro-2-(4-chloro-1H-1,2,3-triazol-1-yl)phenyl)-6-oxopyrimidin-1(6H)-yl)-N-((1-methyl-1H-pyrazol-3-yl)methyl)-3-phenylpropanamide] |
| 277 | N=C(N)c1ccc(NC(=O)[C@H](Cc2ccccc2)n2cnc(-c3cc(Cl)ccc3-n3cc(Cl)nn3)cc2=O)cc1 [Example 112, (S)-N-(4-carbamimidoylphenyl)-2-(4-(5-chloro-2-(4-chloro-1H-1,2,3-triazol-1-yl)phenyl)-6-oxopyrimidin-1(6H)-yl)-3-phenylpropanamide] |
| 213 | O=C(Nc1ccnc2[nH]ncc12)[C@H](Cc1ccccc1)n1cnc(-c2cc(Cl)ccc2-n2cc(Cl)nn2)cc1=O [Example 126, (S)-2-(4-(5-chloro-2-(4-chloro-1H-1,2,3-triazol-1-yl)phenyl)-6-oxopyrimidin-1(6H)-yl)-3-phenyl-N-(1H-pyrazolo[3,4-b]pyridin-4-yl)propanamide] |
| 305 | O=C(Nc1noc2c(Cl)cccc12)[C@H](Cc1ccccc1)n1cnc(-c2cc(Cl)ccc2-n2cc(Cl)nn2)cc1=O [Example 115, (S)-2-(4-(5-chloro-2-(4-chloro-1H-1,2,3-triazol-1-yl)phenyl)-6-oxopyrimidin-1(6H)-yl)-N-(7-chlorobenzo[d]isoxazol-3-yl)-3-phenylpropanamide] |
| 33.3 | NC(=O)c1ccc(NC(=O)[C@H](Cc2ccccc2)n2cnc(-c3cc(Cl)ccc3-n3cc(Cl)nn3)cc2=O)cc1 [Example 118, (S)-4-(2-(4-(5-chloro-2-(4-chloro-1H-1,2,3-triazol-1-yl)phenyl)-6-oxopyrimidin-1(6H)-yl)-3-phenylpropanamido)benzamide] |
| 5.73 | O=C(O)c1ccc(NC(=O)[C@H](Cc2ccccc2)N2CCC(c3cc(Cl)ccc3-n3ccnn3)=CC2=O)cc1 [Example 136, 4-[(2S)-2-{4-[5-chloro-2-(1H-1,2,3-triazol-1-yl)phenyl]-6-oxo-1,2,3,6-tetrahydropyridin-1-yl}-3-phenylpropanamido]benzoic Acid] |
| 325 | Cc1ccc(NC(=O)[C@H](Cc2ccccc2)n2cnc(-c3cc(Cl)ccc3-n3cc(Cl)nn3)cc2=O)nn1 [Example 106, (S)-2-(4-(5-chloro-2-(4-chloro-1H-1,2,3-triazol-1-yl)phenyl)-6-oxopyrimidin-1(6H)-yl)-N-(6-methylpyridazin-3-yl)-3-phenylpropanamide] |
| 336 | O=C(Nc1noc2cc(Br)ccc12)[C@H](Cc1ccccc1)n1cnc(-c2cc(Cl)ccc2-n2cc(Cl)nn2)cc1=O [Example 114, (S)-N-(6-bromobenzo[d]isoxazol-3-yl)-2-(4-(5-chloro-2-(4-chloro-1H-1,2,3-triazol-1-yl)phenyl)-6-oxopyrimidin-1(6H)-yl)-3-phenylpropanamide] |
| 150 | O=C(Nc1ncnc2[nH]ncc12)[C@H](Cc1ccccc1)n1cnc(-c2cc(Cl)ccc2-n2cc(Cl)nn2)cc1=O [Example 109, (S)-2-(4-(5-chloro-2-(4-chloro-1H-1,2,3-triazol-1-yl)phenyl)-6-oxopyrimidin-1(6H)-yl)-3-phenyl-N-(1H-pyrazolo[3,4-d]pyrimidin-4-yl)propanamide] |
